Results as given in article PMC3731424 (Biochemistry, 2013).
Where two headings read alike, the source gives them in different places.

Experiments:
[1] = biological target: B. subtilis PBP4a (Bacillus subtilis, UniProt P39844); experiment: Inhibition of B. subtilis PBP4a, competition with substrate 14; type: biochemical
[2] = biological target: T1, Actinomadura R39 DD-peptidase (Actinomadura sp., UniProt P39045); type: biochemical
[3] = Hydration equilibrium of the carbonyl compounds in aqueous solution; type: physicochemical; details: from 1H NMR spectra
[4] = literature estimate; cited from earlier work
[5] = biological target: T1, Actinomadura R39 DD-peptidase; type: biochemical; remark: listed apart in the source
[6] = cited from earlier work

T1 sequence (P39045 50-538): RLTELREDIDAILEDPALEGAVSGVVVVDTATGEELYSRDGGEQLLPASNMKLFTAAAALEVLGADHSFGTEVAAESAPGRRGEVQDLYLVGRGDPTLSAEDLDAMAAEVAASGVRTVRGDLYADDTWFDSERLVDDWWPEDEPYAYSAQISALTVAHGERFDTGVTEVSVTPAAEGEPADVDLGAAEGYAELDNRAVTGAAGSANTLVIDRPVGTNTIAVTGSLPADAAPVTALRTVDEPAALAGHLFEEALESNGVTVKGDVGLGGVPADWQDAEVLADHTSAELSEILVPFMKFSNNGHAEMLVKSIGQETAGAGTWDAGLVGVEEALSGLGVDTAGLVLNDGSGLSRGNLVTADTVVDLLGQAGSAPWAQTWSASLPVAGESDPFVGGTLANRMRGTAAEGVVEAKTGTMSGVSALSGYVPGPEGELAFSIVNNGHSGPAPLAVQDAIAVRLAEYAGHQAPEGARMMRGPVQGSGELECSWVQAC

SMILES: C[C@H](C=O)NC(=O)CCCC[C@@H](N)C(=O)O [Compound 11]
- Time dependence of inhibition, PBP4a [1]: No time dependence
- Time dependence of inhibition, R39 DD-peptidase [2]: No time dependence
- KH (hydration equilibrium constant [IOH2]/[I]) [3]: 30

SMILES: CC(=O)C(F)(F)F [trifluoroacetone]
- KH, lower limit estimate [4]: ≥ 35

SMILES: CC(NC(=O)CCCC[C@@H](N)C(=O)O)C(=O)C(F)(F)F (stereo partly drawn) [Compound 12, D-α-Aminopimelyl-(1,1,1-trifluoro-3-amino)butan-2-one]
- Ki [1]: 13500 nM
- Time dependence of inhibition, PBP4a [1]: No time dependence
- Ki [2]: 370 nM
- Time dependence of inhibition, R39 DD-peptidase [2]: No time dependence
- Ki [5]: 170 nM

SMILES: C[C@@H](SC(=O)CNC(=O)Cc1ccccc1)C(=O)O [Compound 14, (Phenylacetyl)glycyl-D-thiolactate, reference compound]
- Km ([1]; read-out: Km of the substrate, PBP4a, 20 mM MOPS pH 7.50, 25 °C): 440 ± 80 µM

SMILES: OCC(F)(F)F [trifluoroethanol]
- pKa [6]: 12.4
